Reference: US6737383B1, “Herbicidal oxadiazolidines” (priority 1999, dated 2004)

Tests used:
duck salad = assay: Test B flood test duck salad; format: in vivo, Heteranthera limosa
How it was run: (§1)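 Read-out is a visual response score from 0 (no effect) to 10 (complete control), assigned by comparison with untreated controls. Treatment was applied at the 2-leaf stage, and plants stayed in the greenhouse for twelve to sixteen days before scoring.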

cocklebur = assay: Test B pre/postemergence cocklebur; format: in vivo, Xanthium strumarium; settings: for Cocklebur plant response rating: scale of 0 to 10 where 0 is no effect and 10 is complete control
How it was run: (§2)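 Response is a visual 0-to-10 score relative to untreated plants, where 0 means no effect and 10 means complete control, taken twelve to sixteen days after application. Treatments went onto soil at planting and onto foliage of 1- to 4-leaf plants, using a surfactant-containing non-phytotoxic solvent.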

bedstraw = assay: Test B pre/postemergence bedstraw; format: in vivo, Galium aparine; settings: for Bedstraw plant response rating: scale of 0 to 10 where 0 is no effect and 10 is complete control
How it was run: as §2

bamyardgrass = assay: Test B flood test barnyardgrass; format: in vivo, Echinochloa crus-galli
How it was run: as §1

sugar beet = assay: Test B pre/postemergence sugar beet; format: in vivo, Beta vulgaris; settings: for Sugarbeets plant response rating: scale of 0 to 10 where 0 is no effect and 10 is complete control
How it was run: as §2

soybean = assay: Test B pre/postemergence soybean; format: in vivo, Glycine max; settings: for Soybean plant response rating: scale of 0 to 10 where 0 is no effect and 10 is complete control
How it was run: as §2

rape = assay: Test B pre/postemergence rape; format: in vivo, Brassica napus; settings: for Rape plant response rating: scale of 0 to 10 where 0 is no effect and 10 is complete control
How it was run: as §2

corn = assay: Test B pre/postemergence corn; format: in vivo, Zea mays; settings: for Corn plant response rating: scale of 0 to 10 where 0 is no effect and 10 is complete control
How it was run: as §2

wild oat = assay: Test B pre/postemergence wild oat; format: in vivo, Avena fatua; settings: for Wild oats plant response rating: scale of 0 to 10 where 0 is no effect and 10 is complete control
How it was run: as §2

morningglory = assay: Test B pre/postemergence morningglory; format: in vivo, Ipomoea hederacea; settings: for Morningglory plant response rating: scale of 0 to 10 where 0 is no effect and 10 is complete control
How it was run: as §2

rice = assay: Test B flood test rice; format: in vivo, Oryza sativa
How it was run: as §1

surinam grass = assay: Test B pre/postemergence surinam grass; format: in vivo, Brachiaria decumbens; settings: for B. signalgrass plant response rating: scale of 0 to 10 where 0 is no effect and 10 is complete control
How it was run: as §2

pigweed = assay: Test B pre/postemergence pigweed; format: in vivo, Amaranthus retroflexus; settings: for Redroot pigweed plant response rating: scale of 0 to 10 where 0 is no effect and 10 is complete control
How it was run: as §2

velvetleaf = assay: Test B pre/postemergence velvetleaf; format: in vivo, Abutilon theophrasti; settings: for Velvetleaf plant response rating: scale of 0 to 10 where 0 is no effect and 10 is complete control
How it was run: as §2

crabgrass = assay: Test B pre/postemergence crabgrass; format: in vivo, Digitaria sanguinalis; settings: for Crabgrass plant response rating: scale of 0 to 10 where 0 is no effect and 10 is complete control
How it was run: as §2

smallflower flatsedge = assay: Test B flood test smallflower flatsedge; format: in vivo, Cyperus difformis
How it was run: as §1

[1] = Postemergence (flood test), Rate 125 g/ha, scale 0 to 10, 0 is no effect, 10 is complete control
[2] = Rate 62 g/ha, Postemergence (flood test species), scale of 0 to 10 where 0 is no effect and 10 is complete control
[3] = Rate 500 g/ha, listed under Postemergence (flood test species), scale 0 to 10, 0 no effect, 10 complete control
[4] = flood test species, listed under Postemergence, Rate 250 g/ha, scale 0 to 10, 0 is no effect, 10 is complete control
[5] = Postemergence, Rate 125 g/ha, scale 0 to 10, 0 is no effect, 10 is complete control
[6] = Postemergence, Rate 250 g/ha, scale 0 to 10, 0 is no effect, 10 is complete control
[7] = Preemergence, Rate 62 g/ha, scale 0 to 10 (0 no effect, 10 complete control)
[8] = Rate 500 g/ha, Postemergence, scale 0 to 10, 0 no effect, 10 complete control

CCN(CC)C(=O)n1oc(=O)n(-c2ccccc2C)c1=O [Compound 364]
Plant response rating, Ducksalad (duck salad; [1]): 0 | Ducksalad plant response rating (duck salad; [2]): 0 | Plant response rating, Ducksalad (duck salad; [3]): 0 | Plant response rating, Ducksalad (duck salad; [4]): 0 | Plant response rating, Cocklebur (cocklebur; [5]): 0 | Plant response rating, Cocklebur (cocklebur; [6]): 0 | Plant response rating, Cocklebur (cocklebur; [7]): 0 | Cocklebur plant response rating (0 to 10 scale) (cocklebur; Preemergence, Rate 125 g/ha): 0 | Cocklebur plant response rating (cocklebur; Preemergence, Rate 250 g/ha): 0 | Cocklebur plant response rating (cocklebur; Preemergence, Rate 500 g/ha): 0 | Cocklebur plant response rating (cocklebur; Rate 62 g/ha, Postemergence): 0 | Plant response rating, Cocklebur (cocklebur; [8]): 2 | Plant response rating, Bedstraw (bedstraw; [5]): 0 | Plant response rating, Bedstraw (bedstraw; [6]): 0 | Plant response rating, Bedstraw (bedstraw; [7]): 0 | Bedstraw plant response rating (0 to 10 scale) (bedstraw; Preemergence, Rate 125 g/ha): 0 | Bedstraw plant response rating (bedstraw; Preemergence, Rate 250 g/ha): 0 | Bedstraw plant response rating (bedstraw; Preemergence, Rate 500 g/ha): 3 | Bedstraw plant response rating (bedstraw; Rate 62 g/ha, Postemergence): 0 | Plant response rating, Bedstraw (bedstraw; [8]): 0 | Plant response rating, Barnyardgrass (bamyardgrass; [1]): 0 | Barnyardgrass plant response rating (bamyardgrass; [2]): 0 | Plant response rating, Barnyardgrass (bamyardgrass; [3]): 0 | Plant response rating, Barnyardgrass (bamyardgrass; [4]): 0 | Plant response rating, Sugarbeets (sugar beet; [5]): 0 | Plant response rating, Sugarbeets (sugar beet; [6]): 0 | Plant response rating, Sugarbeets (sugar beet; [7]): 0 | Sugarbeets plant response rating (0 to 10 scale) (sugar beet; Preemergence, Rate 125 g/ha): 0 | Sugarbeets plant response rating (sugar beet; Preemergence, Rate 250 g/ha): 0 | Sugarbeets plant response rating (sugar beet; Preemergence, Rate 500 g/ha): 0 | Sugarbeets plant response rating (sugar beet; Rate 62 g/ha, Postemergence): 0 | Plant response rating, Sugarbeets (sugar beet; [8]): 1 | Plant response rating, Soybean (soybean; [5]): 2 | Plant response rating, Soybean (soybean; [6]): 3 | Plant response rating, Soybean (soybean; [7]): 0 | Soybean plant response rating (0 to 10 scale) (soybean; Preemergence, Rate 125 g/ha): 0 | Soybean plant response rating (soybean; Preemergence, Rate 250 g/ha): 0 | Soybean plant response rating (soybean; Preemergence, Rate 500 g/ha): 0 | Soybean plant response rating (soybean; Rate 62 g/ha, Postemergence): 0 | Plant response rating, Soybean (soybean; [8]): 3 | Plant response rating, Rape (rape; [5]): 0 | Plant response rating, Rape (rape; [6]): 0 | Plant response rating, Rape (rape; [7]): 0 | Rape plant response rating (0 to 10 scale) (rape; Preemergence, Rate 125 g/ha): 0 | Rape plant response rating (rape; Preemergence, Rate 250 g/ha): 0 | Rape plant response rating (rape; Preemergence, Rate 500 g/ha): 2 | Rape plant response rating (rape; Rate 62 g/ha, Postemergence): 0 | Plant response rating, Rape (rape; [8]): 0 | Plant response rating, Corn (corn; [5]): 0 | Plant response rating, Corn (corn; [6]): 2 | Plant response rating, Corn (corn; [7]): 0 | Corn plant response rating (0 to 10 scale) (corn; Preemergence, Rate 125 g/ha): 0 | Corn plant response rating (corn; Preemergence, Rate 250 g/ha): 0 | Corn plant response rating (corn; Preemergence, Rate 500 g/ha): 0 | Corn plant response rating (corn; Rate 62 g/ha, Postemergence): 0 | Plant response rating, Corn (corn; [8]): 3 | Plant response rating, Wild oats (wild oat; [5]): 0 | Plant response rating, Wild oats (wild oat; [6]): 0 | Plant response rating, Wild oats (wild oat; [7]): 0 | Wild oats plant response rating (0 to 10 scale) (wild oat; Preemergence, Rate 125 g/ha): 0 | Wild oats plant response rating (wild oat; Preemergence, Rate 250 g/ha): 0 | Wild oats plant response rating (wild oat; Preemergence, Rate 500 g/ha): 3 | Wild oats plant response rating (wild oat; Rate 62 g/ha, Postemergence): 0 | Plant response rating, Wild oats (wild oat; [8]): 0 | Plant response rating, Morningglory (morningglory; [5]): 0 | Plant response rating, Morningglory (morningglory; [6]): 0 | Plant response rating, Morningglory (morningglory; [7]): 0 | Morningglory plant response rating (0 to 10 scale) (morningglory; Preemergence, Rate 125 g/ha): 0 | Morningglory plant response rating (morningglory; Preemergence, Rate 250 g/ha): 0 | Morningglory plant response rating (morningglory; Preemergence, Rate 500 g/ha): 0 | Morningglory plant response rating (morningglory; Rate 62 g/ha, Postemergence): 0 | Plant response rating, Morningglory (morningglory; [8]): 4 | Plant response rating, Rice (rice; [1]): 0 | Rice plant response rating (rice; [2]): 0 | Plant response rating, Rice (rice; [3]): 0 | Plant response rating, Rice (rice; [4]): 0 | Plant response rating, B. signalgrass (surinam grass; [5]): 0 | Plant response rating, B. signalgrass (surinam grass; [6]): 0 | Plant response rating, B. signalgrass (surinam grass; [7]): 0 | B. signalgrass plant response rating (0 to 10 scale, 0 is no effect, 10 is complete control) (surinam grass; Preemergence, Rate 125 g/ha): 0 | B. signalgrass plant response rating (surinam grass; Preemergence, Rate 250 g/ha): 0 | B. signalgrass plant response rating (surinam grass; Preemergence, Rate 500 g/ha): 3 | B. signalgrass plant response rating (surinam grass; Rate 62 g/ha, Postemergence): 0 | Plant response rating, B. signalgrass (surinam grass; [8]): 1 | Plant response rating, Redroot pigweed (pigweed; [5]): 0 | Plant response rating, Redroot pigweed (pigweed; [6]): 0 | Plant response rating, Redroot pigweed (pigweed; [7]): 0 | Redroot pigweed plant response rating (0 to 10 scale) (pigweed; Preemergence, Rate 125 g/ha): 0 | Redroot pigweed plant response rating (pigweed; Preemergence, Rate 250 g/ha): 0 | Redroot pigweed plant response rating (pigweed; Preemergence, Rate 500 g/ha): 0 | Redroot pigweed plant response rating (pigweed; Rate 62 g/ha, Postemergence): 0 | Plant response rating, Redroot pigweed (pigweed; [8]): 0 | Plant response rating, Velvetleaf (velvetleaf; [5]): 0 | Plant response rating, Velvetleaf (velvetleaf; [6]): 0 | Plant response rating, Velvetleaf (velvetleaf; [7]): 0 | Velvetleaf plant response rating (0 to 10 scale) (velvetleaf; Preemergence, Rate 125 g/ha): 0 | Velvetleaf plant response rating (velvetleaf; Preemergence, Rate 250 g/ha): 0 | Velvetleaf plant response rating (velvetleaf; Preemergence, Rate 500 g/ha): 0 | Velvetleaf plant response rating (velvetleaf; Rate 62 g/ha, Postemergence): 0 | Plant response rating, Velvetleaf (velvetleaf; [8]): 0 | Plant response rating, Crabgrass (crabgrass; [5]): 0 | Plant response rating, Crabgrass (crabgrass; [6]): 0 | Plant response rating, Crabgrass (crabgrass; [7]): 0 | Crabgrass plant response rating (0 to 10 scale) (crabgrass; Preemergence, Rate 125 g/ha): 0 | Crabgrass plant response rating (crabgrass; Preemergence, Rate 250 g/ha): 2 | Crabgrass plant response rating (crabgrass; Preemergence, Rate 500 g/ha): 5 | Crabgrass plant response rating (crabgrass; Rate 62 g/ha, Postemergence): 0 | Plant response rating, Crabgrass (crabgrass; [8]): 2 | Plant response rating, S. Flatsedge (smallflower flatsedge; [1]): 0 | S. Flatsedge plant response rating (smallflower flatsedge; [2]): 0 | Plant response rating, S. Flatsedge (smallflower flatsedge; [3]): 3 | Plant response rating, S. Flatsedge (smallflower flatsedge; [4]): 0
